Data published in ChEMBL document CHEMBL1201862, “PubChem BioAssay data set” (2004).
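In this assay, cells in 96-well plates receive the compound at five concentrations for 48 hours. Endpoints are linearly interpolated between the surrounding concentrations. GI50 = concentration required for 50% inhibition of growth.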 Activity calls are given as the source filed them. Rule as the data show it: active = GI50 up to about 1.1 µM and inactive = higher.

Experiments:
Experiment in all cases: NCI-60 cell line screen, 48 h
IGROV-1 = system: IGROV-1
EKVX = system: EKVX
Malme-3M = system: Malme-3M
SF-268 = system: SF-268
KM12 = system: KM12
Hs-578T = system: Hs-578T
786-0 = system: 786-0
SK-MEL-5 = system: SK-MEL-5
DU-145 = system: DU-145
SK-OV-3 = system: SK-OV-3
SNB-75 = system: SNB-75
MDA-MB-231 = system: MDA-MB-231
ACHN = system: ACHN
MDA-MB-435 = system: MDA-MB-435
SF-295 = system: SF-295
UACC-62 = system: UACC-62
MOLT-4 = system: MOLT-4
OVCAR-4 = system: OVCAR-4
HL-60 = system: HL-60
SK-MEL-2 = system: SK-MEL-2

Measured: GI50

Cn1c(-c2cccs2)cc(-c2ccsc2)c1-c1ccsc1
inactive: IGROV-1 > 100 µM | EKVX > 100 µM | Malme-3M > 100 µM | SF-268 > 100 µM | KM12 > 100 µM | Hs-578T > 100 µM | 786-0 > 100 µM | SK-MEL-5 36.1 µM | DU-145 > 100 µM | SK-OV-3 > 100 µM | SNB-75 > 100 µM | MDA-MB-231 > 100 µM | ACHN > 100 µM | MDA-MB-435 > 100 µM | SF-295 > 100 µM | UACC-62 > 100 µM | MOLT-4 > 100 µM | OVCAR-4 > 100 µM

Cn1cco/c1=N/c1ccc(Cl)c(Cl)c1
inactive: IGROV-1 > 10 µM | EKVX > 10 µM | Malme-3M > 10 µM | SF-268 > 10 µM | KM12 > 10 µM | Hs-578T > 10 µM | 786-0 > 10 µM | SK-MEL-5 > 10 µM | DU-145 > 10 µM | SK-OV-3 > 10 µM | SNB-75 > 10 µM | MDA-MB-231 > 10 µM | ACHN > 10 µM | MDA-MB-435 > 10 µM | SF-295 > 10 µM | UACC-62 > 10 µM | MOLT-4 > 10 µM | OVCAR-4 > 10 µM

CC1CN=C(N(C(=O)Nc2ccccc2)c2ccc(Cl)c(Cl)c2)S1 (stereo not drawn)
inactive: IGROV-1 41.6 µM | EKVX 23.3 µM | Malme-3M 38 µM | SF-268 61 µM | KM12 30.5 µM | Hs-578T 65 µM | 786-0 31.1 µM | SK-MEL-5 18.5 µM | DU-145 45.8 µM | HL-60 30.3 µM | SK-OV-3 52.7 µM | SNB-75 > 100 µM | MDA-MB-231 18.2 µM | SK-MEL-2 18.9 µM | ACHN 31.6 µM | SF-295 45.5 µM | MOLT-4 > 10 µM | OVCAR-4 75.3 µM

CC[S+]([O-])C(=O)N(O)c1ccc(Cl)cc1 (stereo not drawn)
inactive: EKVX 26.7 µM | SF-268 20.8 µM | KM12 15.6 µM | Hs-578T 41.2 µM | 786-0 21.7 µM | SK-MEL-5 26.4 µM | DU-145 > 100 µM | SK-OV-3 > 100 µM | SNB-75 32.1 µM | MDA-MB-231 29.4 µM | SK-MEL-2 15.3 µM | ACHN 11.1 µM | MDA-MB-435 15 µM | SF-295 85.7 µM | UACC-62 8.55 µM | MOLT-4 9.64 µM | OVCAR-4 38.3 µM

COc1ccc(C2CC(c3c(O)ccc4ccccc34)=NN2C(C)=O)cc1OC (stereo not drawn)
inactive: IGROV-1 38.7 µM | Malme-3M 31 µM | SF-268 31.4 µM | KM12 34.2 µM | Hs-578T 36.9 µM | 786-0 33.3 µM | SK-MEL-5 21.9 µM | DU-145 36.2 µM | SK-OV-3 57.8 µM | SNB-75 19.8 µM | MDA-MB-231 18.5 µM | SK-MEL-2 19.3 µM | ACHN 35.4 µM | MDA-MB-435 21.3 µM | SF-295 37.4 µM | UACC-62 15.1 µM | MOLT-4 19.3 µM | OVCAR-4 44.3 µM

C[C@H](C/C=C/C(C)(C)O)[C@H]1CC[C@@]2(C)[C@@H]3CC[C@H]4C(C)(C)[C@@H](O)CC[C@@]45C[C@@]35CC[C@]12C
inactive: IGROV-1 22.4 µM | EKVX 14.1 µM | SF-268 1.94 µM | KM12 24.7 µM | Hs-578T 11.2 µM | 786-0 20.9 µM | DU-145 15.4 µM | SK-OV-3 32.1 µM | SNB-75 20.3 µM | MDA-MB-231 15.4 µM | SK-MEL-2 17.3 µM | ACHN 6.35 µM | MDA-MB-435 20.5 µM | SF-295 16.6 µM | UACC-62 26.1 µM | MOLT-4 9.91 µM | OVCAR-4 16.9 µM

CCCCCCC(C)CC(CCCCCC)NCCOC(=O)c1ccc([N+](=O)[O-])cc1 (stereo not drawn)
inactive: IGROV-1 12.3 µM | EKVX 8.71 µM | Malme-3M 11.1 µM | SF-268 13.8 µM | KM12 10.1 µM | Hs-578T 17.2 µM | 786-0 12.6 µM | SK-MEL-5 9.68 µM | DU-145 12.2 µM | SK-OV-3 14.9 µM | SNB-75 16 µM | MDA-MB-231 6.71 µM | SK-MEL-2 14.1 µM | ACHN 13.3 µM | SF-295 15.2 µM | UACC-62 13 µM | OVCAR-4 11.5 µM

C/C=C(C)/C=C/CC(C)CCC=C(C)C (stereo not drawn)
inactive: IGROV-1 > 100 µM | EKVX > 100 µM | KM12 > 100 µM | 786-0 > 100 µM | SK-MEL-5 > 100 µM | DU-145 > 100 µM | HL-60 44.5 µM | SK-OV-3 > 100 µM | SNB-75 > 100 µM | MDA-MB-231 > 100 µM | SK-MEL-2 > 100 µM | ACHN > 100 µM | MDA-MB-435 > 100 µM | SF-295 > 100 µM | UACC-62 > 100 µM | MOLT-4 > 100 µM | OVCAR-4 92.9 µM

c1ccc2sc(C3(N4CCCC4)CCCCCC3)cc2c1
inactive: IGROV-1 19.1 µM | EKVX 17.3 µM | SF-268 13.5 µM | KM12 12.9 µM | 786-0 14.1 µM | SK-MEL-5 16.6 µM | DU-145 22.4 µM | HL-60 17.4 µM | SK-OV-3 16.8 µM | SNB-75 13.5 µM | MDA-MB-231 17.1 µM | ACHN 23.6 µM | MDA-MB-435 16.4 µM | SF-295 15 µM | UACC-62 16.2 µM | MOLT-4 12.5 µM | OVCAR-4 13.4 µM

CC1(C)CC(=O)C2=C(C1)N(c1ccccc1)C1(O)C=CC(O)=C3C(=O)c4ccccc4C(=O)C321 (stereo not drawn)
inactive: IGROV-1 26 µM | EKVX 55.6 µM | Malme-3M 26.7 µM | SF-268 20.2 µM | KM12 23 µM | 786-0 33.1 µM | DU-145 74 µM | HL-60 37.2 µM | SK-OV-3 88.9 µM | SNB-75 22.5 µM | MDA-MB-231 34.4 µM | SK-MEL-2 27 µM | ACHN 21.1 µM | MDA-MB-435 20.7 µM | SF-295 30 µM | UACC-62 19.2 µM | MOLT-4 12.5 µM | OVCAR-4 14.7 µM

CN1C(=O)C(=CNc2ccc(Cl)cc2Cl)C(=O)N(C)C1=O
inactive: IGROV-1 > 100 µM | EKVX > 100 µM | Malme-3M > 100 µM | SF-268 > 100 µM | KM12 > 100 µM | Hs-578T > 100 µM | 786-0 > 100 µM | SK-MEL-5 > 100 µM | SK-OV-3 > 100 µM | SNB-75 > 100 µM | MDA-MB-231 > 100 µM | SK-MEL-2 > 100 µM | ACHN > 100 µM | MDA-MB-435 > 100 µM | SF-295 > 100 µM | UACC-62 > 100 µM | MOLT-4 66.5 µM | OVCAR-4 > 100 µM
